A word on the IC50: it is the point on the concentration scale where inhibition reaches its midpoint.

The target in assay [1] is T1, human SGLT2 (Homo sapiens, UniProt P31639).
T1 construct: expressed in transfected cells
T1 sequence (P31639 1-672): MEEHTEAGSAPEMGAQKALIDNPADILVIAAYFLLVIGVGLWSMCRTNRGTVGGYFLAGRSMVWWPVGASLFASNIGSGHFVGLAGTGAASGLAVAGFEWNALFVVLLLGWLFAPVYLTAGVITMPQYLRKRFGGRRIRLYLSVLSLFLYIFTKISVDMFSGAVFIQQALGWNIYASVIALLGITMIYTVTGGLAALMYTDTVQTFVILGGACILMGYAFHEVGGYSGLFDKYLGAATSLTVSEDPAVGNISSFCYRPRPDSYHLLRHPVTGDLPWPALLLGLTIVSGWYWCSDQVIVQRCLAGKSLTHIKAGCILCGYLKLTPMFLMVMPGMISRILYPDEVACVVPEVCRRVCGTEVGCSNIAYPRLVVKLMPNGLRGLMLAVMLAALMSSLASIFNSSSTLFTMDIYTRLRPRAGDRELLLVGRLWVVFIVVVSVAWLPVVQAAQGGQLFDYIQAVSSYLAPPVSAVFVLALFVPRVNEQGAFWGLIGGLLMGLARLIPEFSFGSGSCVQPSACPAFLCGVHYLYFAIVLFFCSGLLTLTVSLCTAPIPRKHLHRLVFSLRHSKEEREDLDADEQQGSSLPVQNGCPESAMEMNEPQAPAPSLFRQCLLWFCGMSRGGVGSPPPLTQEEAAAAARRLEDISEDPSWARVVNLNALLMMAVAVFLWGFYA
Briefly: SGLT2 in vitro assay: Na-dependent 14C-AMG uptake in CHO-K1 cells stably expressing human SGLT2. The conditions noted are these: CHO-K1 cells stably expressing human SGLT2, 14C-AMG uptake; for inhibition at 0.3 µM: read-out: SGLT2 % Inh @ 0.3 μM; for IC50: compounds of formula (I) where R0 is fluoro. It is filed as cell-based. The protocol: (§1) Biological Example 1: SGLT1 and SGLT2 In Vitro Assays
(§2) The ability of the compounds of formula (I) of the present invention to treat an SGLT-mediated condition was determined using the following procedures:
(§3) SGLT1 and SGLT2 were cloned in form of cDNA from human small intestine (Genbank M24847), and from human kidney (Genbank M95549), respectively. Subsequently, each full cDNA was subcloned into pcDNA with each construct's integrity verified through follow-on sequencing. To generate CHO-K1 cells that stably express human SGLT1 or human SGLT2, CHO-K1 cells were transfected using DMRIE-C reagent (Life Technologies, Gaithersburg, Md.). Transfected cells were then selected in the presence of 500 μg/ml of the Geneticin (G418 Cellgro Catalog No. 30234-CI)
(§4) Individual clones were then characterized using the following cell-based assay for sodium-dependent glucose transport:
(§5) Inhibition of SGLT1 and SGLT2 activity was assessed in CHO K1 cells stably expressing either human SGLT1 or SGLT2, using the SGLT specific glucose analog methyl-glucopyranoside (Sigma Catalog No. M-9376). Cells were plated (45,000 cells/well) in white wall 96-well plates (COSTAR, Cat #3903) for 24 hours in growth medium, then a final concentration of 10 mM Na-Butyrate (ALDRICH Cat #30341-0) was added. The cells were incubated for 24 hours. On the day of the assay, cells were rinsed and treated with test compounds (at concentrations of 0.001 μM to 10 μM) in assay buffer (50 mM HEPES, 20 mM Tris base, 5 mM KCl, 1 mM MgCl2, 1 mM CaCl2 and 137 mM NaCl, pH 7.4) for 10 minutes. Cells were then incubated with ^14C-a-methyl-d-glucopyranoside (AMG, Amersham Catalog No. CFB 76), using 0.07 μCi per well in 500 µM AMG final concentration. The cells were incubated for 2 hours at 37° C. with 5% CO2 and washed two times with ice-cold Phosphate Buffer Solution (CELLGRO Catalog No. 21030-CV). The cells were then solubilized by adding 60 μl of MICROSCINT™ 20 and the Na-dependent ^14C-AMG uptake was quantified by measuring radioactivity. Plates were counted in a TopCount (Packard, Meriden, Conn.)
(§6) Representative compounds of the present invention were tested according to the procedures as described in Biological Example 1 and 2 above, with results as listed in Table 5, below. Results are reported as the %-inhibition or IC50 value. Variability for the functional assay was typically within 20%.

The target in assay [2] is T2, human SGLT1 (Homo sapiens, UniProt P13866).
T2 construct: expressed in transfected cells
T2 sequence (P13866 1-664): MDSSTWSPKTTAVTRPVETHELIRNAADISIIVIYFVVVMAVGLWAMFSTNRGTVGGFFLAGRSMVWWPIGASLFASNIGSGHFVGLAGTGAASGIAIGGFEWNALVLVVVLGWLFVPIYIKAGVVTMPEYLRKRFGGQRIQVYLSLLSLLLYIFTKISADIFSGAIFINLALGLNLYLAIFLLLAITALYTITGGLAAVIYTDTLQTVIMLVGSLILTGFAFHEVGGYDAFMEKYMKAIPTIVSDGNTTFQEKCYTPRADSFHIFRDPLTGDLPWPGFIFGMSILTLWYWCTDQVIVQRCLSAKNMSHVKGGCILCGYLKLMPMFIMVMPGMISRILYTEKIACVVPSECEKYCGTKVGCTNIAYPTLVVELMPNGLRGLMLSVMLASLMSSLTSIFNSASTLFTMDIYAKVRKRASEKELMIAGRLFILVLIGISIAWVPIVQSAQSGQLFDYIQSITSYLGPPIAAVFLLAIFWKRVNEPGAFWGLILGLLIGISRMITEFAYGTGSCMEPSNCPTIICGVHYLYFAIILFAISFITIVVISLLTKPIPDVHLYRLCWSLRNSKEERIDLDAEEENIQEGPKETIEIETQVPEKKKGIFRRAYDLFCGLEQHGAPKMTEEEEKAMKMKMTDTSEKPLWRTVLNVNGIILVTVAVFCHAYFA
Briefly: SGLT1 in vitro assay: Na-dependent 14C-AMG uptake in CHO-K1 cells stably expressing human SGLT1. It is filed as cell-based. The conditions noted are these: CHO-K1 cells stably expressing human SGLT1, 14C-AMG uptake; for inhibition at 0.3 µM: read-out: SGLT1 % Inh @ 0.3 μM; for IC50: compounds of formula (I) where R0 is fluoro. As for the experimental part: as §1, §2, §3, §4, §5, §6

In the case of `COc1cc(O)c([C@@H]2O[C@H](CO)C(F)(F)[C@H](O)[C@H]2O)cc1Cc1ccc2c(c1)OCCO2` [Compound 54, (2S,3R,4R,6R)-2-[5-(2,3-dihydro-1,4-benzodioxin-6-ylmethyl)-2-hydroxy-4-methoxy-phenyl]-5,5-difluoro-6-(hydroxymethyl)tetrahydropyran-3,4-diol], in assay [1], the inhibition at 0.3 µM was 52.8% and it took 26.3 nM to reach half-maximal inhibition (IC50). In assay [2], the inhibition at 0.3 µM was determined as 41.8% and 895 nM corresponded to half-maximal inhibition (IC50).

For the compound `COc1cc(OC)c([C@@H]2O[C@H](CO)C(F)(F)[C@H](O)[C@H]2O)cc1Cc1ccc2c(c1)OCCO2` [Compound 55, (2S,3R,4R,6R)-2-[5-(2,3-dihydro-1,4-benzodioxin-6-ylmethyl)-2,4-dimethoxy-phenyl]-5,5-difluoro-6-(hydroxymethyl)tetrahydropyran-3,4-diol], the inhibition at 0.3 µM in assay [1] stood at 84.2%; in assay [2] it was 15.8%.

For `Cc1cc(O)c([C@@H]2O[C@H](CO)C(F)(F)[C@H](O)[C@H]2O)cc1Cc1ccc2c(c1)OCCO2` [Compound 56, (2S,3R,4R,6R)-2-(5-((2,3-dihydrobenzo[b][1,4]dioxin-6-yl)methyl)-2-hydroxy-4-methylphenyl)-5,5-difluoro-6-(hydroxymethyl)tetrahydro-2H-pyran-3,4-diol], the inhibition at 0.3 µM in assay [1] worked out at 93%; in assay [2], 78.3%. For the same compound, the half-inhibitory concentration (IC50) came out at 2 nM in assay [1] and 65 nM in assay [2].

In the case of `CCc1ccc(Cc2cc([C@@H]3O[C@H](CO)C(F)(F)[C@H](O)[C@H]3O)cc3c2OCC3)cc1` [Compound 58], the “SGLT2 % Inh @ 0.3 μM” value in assay [1] stood at 81.9%. Further, the “SGLT1 % Inh @ 0.3 μM” value in assay [2] amounted to 36.8%.

Consider `Cc1c(Cc2cc3ccccc3s2)cc([C@@H]2O[C@H](CO)C(F)(F)[C@H](O)[C@H]2O)c(O)c1C` [Compound 60, (2S,3R,4R,6R)-2-(5-(benzo[b]thiophen-2-ylmethyl)-2-hydroxy-3,4-dimethylphenyl)-5,5-difluoro-6-(hydroxymethyl)tetrahydro-2H-pyran-3,4-diol], for which, in assay [1], the inhibition at 0.3 µM stood at 91.1% and the IC50 came out at 12.2 nM. In assay [2], the inhibition at 0.3 µM worked out at 83.4% and the IC50 came to 88 nM.

Consider `COc1cc(O)c([C@@H]2O[C@H](CO)C(F)(F)[C@H](O)[C@H]2O)cc1Cc1ccc2c(c1)CCO2` [Compound 62, (2S,3R,4R,6R)-2-[5-(2,3-dihydrobenzofuran-5-ylmethyl)-2-hydroxy-4-methoxy-phenyl]-5,5-difluoro-6-(hydroxymethyl)tetrahydropyran-3,4-diol], for which the inhibition at 0.3 µM was found to be 79.6% in assay [1] and 40.9% in assay [2]. Besides, the figures for the IC50 in assay [1] and in assay [2] were 17.3 nM and 708 nM, respectively.

Regarding `COC(=O)N1CCc2sc(Cc3cc([C@@H]4O[C@H](CO)C(F)(F)[C@H](O)[C@H]4O)c(O)cc3Cl)cc2C1` [Compound 64], the “SGLT2 % Inh @ 0.3 μM” value in assay [1] turned out to be 67.1%. Besides, the “SGLT1 % Inh @ 0.3 μM” value in assay [2] is given as 6.2%.

On to `COC(=O)N1CCc2sc(Cc3cc([C@@H]4O[C@H](CO)C(F)(F)[C@H](O)[C@H]4O)c(OC)cc3Cl)cc2C1` [Compound 65], for which the “SGLT2 % Inh @ 0.3 μM” value in assay [1] was found to be 56.1%. Also, in assay [2], the “SGLT1 % Inh @ 0.3 μM” value was determined as 16.9%.

As to `Cc1cc(O)c([C@@H]2O[C@H](CO)C(F)(F)[C@H](O)[C@H]2O)cc1Cc1ccc(-c2ccc(F)cc2)s1` [Compound 68], the “SGLT2 % Inh @ 0.3 μM” value in assay [1] was 69.5%. In addition, the “SGLT1 % Inh @ 0.3 μM” value in assay [2] was found to be 26.6%.

As for `Cc1cc(O)c([C@@H]2O[C@H](CO)C(F)(F)[C@H](O)[C@H]2O)cc1Cc1cc2c(s1)CCN(C(=O)C1CCCC1)C2` [Compound 69], the “SGLT2 % Inh @ 0.3 μM” value in assay [1] came to 67.1%. Besides, in assay [2], the “SGLT1 % Inh @ 0.3 μM” value amounted to 64.0%.

`Cc1cc(O)c([C@@H]2O[C@H](CO)C(F)(F)[C@H](O)[C@H]2O)cc1Cc1ccc(-c2cccc(F)n2)s1` [Compound 70]: in assay [1], the inhibition at 0.3 µM amounted to 76.2% and the IC50 was 2.7 nM. In addition, in assay [2], the inhibition at 0.3 µM was determined as 61.2% and inhibition was half-maximal at 120 nM (IC50).

Consider `Cc1cc(O)c([C@@H]2O[C@H](CO)C(F)(F)[C@H](O)[C@H]2O)cc1Cc1ccc(-c2cccc(F)c2)s1` [Compound 71], for which the “SGLT2 % Inh @ 0.3 μM” value in assay [1] came out at 76.8%. In addition, the “SGLT1 % Inh @ 0.3 μM” value in assay [2] is on record as 21.6%.

As to `CC(=O)N1CCc2sc(Cc3cc([C@@H]4O[C@H](CO)C(F)(F)[C@H](O)[C@H]4O)c(O)cc3Cl)cc2C1` [Compound 72], the “SGLT2 % Inh @ 0.3 μM” value in assay [1] stood at 73.0%. In assay [2], the “SGLT1 % Inh @ 0.3 μM” value was 38.5%.

`COc1cc(Cl)c(Cc2cc3c(s2)CCN(C(C)=O)C3)cc1[C@@H]1O[C@H](CO)C(F)(F)[C@H](O)[C@H]1O` [Compound 73]: in assay [1], the “SGLT2 % Inh @ 0.3 μM” value amounted to 55.0%. Further, the “SGLT1 % Inh @ 0.3 μM” value in assay [2] is on record as 21.4%.

In the case of `COC(=O)N1CCc2sc(Cc3cc([C@@H]4O[C@H](CO)C(F)(F)[C@H](O)[C@H]4O)c(OC)cc3OC)cc2C1` [Compound 75], in assay [1], the “SGLT2 % Inh @ 0.3 μM” value is reported as 52.3%. Moreover, the “SGLT1 % Inh @ 0.3 μM” value in assay [2] was determined as 15.5%.

Take `COc1c([C@@H]2O[C@H](CO)C(F)(F)[C@H](O)[C@H]2O)cc(Cc2ccc3c(c2)OCCO3)c2c1CCO2` [Compound 76]: the results for the inhibition at 0.3 µM in assay [1] and in assay [2] were 84.4% and 44.3%, respectively. Also, the IC50 in assay [1] stood at 5 nM; in assay [2], 302 nM.

`COc1cc(OC)c([C@@H]2O[C@H](CO)C(F)(F)[C@H](O)[C@H]2O)cc1Cc1cc2c(s1)CCN(C(C)=O)C2` [Compound 77]: in assay [1], the “SGLT2 % Inh @ 0.3 μM” value was 51.4%. Besides, the “SGLT1 % Inh @ 0.3 μM” value in assay [2] was found to be 22.6%.

For `COc1cc(C)c(Cc2cc3c(s2)CCN(C(=O)N2CCCC2)C3)cc1[C@@H]1O[C@H](CO)C(F)(F)[C@H](O)[C@H]1O` [Compound 78], the “SGLT2 % Inh @ 0.3 μM” value in assay [1] stood at 71.5%. Besides, the “SGLT1 % Inh @ 0.3 μM” value in assay [2] is listed as 28.0%.

On to `Cc1ccc([C@@H]2O[C@H](CO)C(F)(F)[C@H](O)[C@H]2O)cc1Cc1cc2c(s1)CCN(C(=O)c1nccs1)C2` [Compound 79], for which the “SGLT2 % Inh @ 0.3 μM” value in assay [1] is given as 63.6%. In assay [2], the “SGLT1 % Inh @ 0.3 μM” value came to 20.3%.

(Values after patent US20210238170A1, “5,5-Difluoro- and 5-Fluoro-5-Methyl-C-Glycoside Derivatives Useful As Dual SGLT1 / SGLT2 Modulators” (Janssen Pharmaceutica NV, priority 2018, published 2021).)
